The values that follow come from PubChem BioAssay (NCI).

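These data come from cells grown in 96-well plates and exposed to compound for 48 hours at five concentrations. TGI is the concentration that stops growth completely.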 A value given as a limit tells only on which side of the number the result lay.

Experiment in all cases: growth of human tumour cells (NCI), 48 h
For assay [1], the system named is ACHN renal.
Assay [2] concerns DU-145 prostate.
The subject of assay [3] is HCT-15 colon.
Assay [4] deals with HL-60(TB) leukemia.
In assay [5] the test system is HOP-92 NSCLC.
Assay [6] relates to HT29 colon.
The test system of assay [7] is IGROV1 ovarian.
The subject of assay [8] is LOX IMVI melanoma.
Assay [9] deals with M14 melanoma.
Assay [10] deals with NCI-H23 lung.
The subject of assay [11] is NCI-H522 lung.
For assay [12], the system named is OVCAR-3 ovarian.
Assay [13] relates to PC-3 prostate.
Assay [14] deals with SF-539 CNS.
Assay [15] has as its system SK-MEL-2 melanoma.
Assay [16] concerns SK-MEL-5 melanoma.
Assay [17] relates to SK-OV-3 ovarian.
The subject of assay [18] is SN12C renal.
For assay [19], the system named is SW-620 colon.
For assay [20], the system named is UACC-257 melanoma.

Consider `CN(C)c1ccc(C2SCC(=O)N2c2ccc(Oc3ccc(Cl)cc3)c(Cl)c2)cc1` (stereo not given), for which the TGI was more than 100 µM in assay [1]; 57.2 µM in assay [2]; 55.8 µM in assay [3]; 58.7 µM in [4]; 45.8 µM in [5]; 39.8 µM in [6]. The TGI in assay [7] worked out at 92.5 µM; in [8], 39.5 µM; in [9] it was 69 µM; in assay [10] it was 45.4 µM; in [11], 42.9 µM; in [12], 79.9 µM. For the same compound, the TGI in assay [13] was 55.6 µM; in assay [14] it was 40.4 µM; in assay [15], 54.1 µM; in assay [16], 36.8 µM; in [17], 60.4 µM; in assay [18], 50 µM. Further, the TGI in assay [19] and in assay [20] was more than 100 µM each time.
As for `CC1=NNC(=O)C1C(CC(=O)c1c[nH]c2ccccc12)C(=O)O` (stereo not given), the TGI in [1], in [2], in assay [3], in assay [4], in [5] and in assay [6] was more than 100 µM throughout. The TGI in assay [7], in assay [8], in assay [9], in [10], in [11] and in assay [12] was more than 100 µM in each case. For the same compound, the TGI in assay [13], in assay [14], in assay [15], in assay [16], in [17] and in [18] was more than 100 µM throughout. Further, the TGI in [19] and in assay [20] was more than 100 µM throughout.
For the compound `Nc1ccc(C(=O)N2CCC[C@H]2CO)c(N)c1`, the TGI in assay [1], in assay [2], in assay [3], in assay [4], in [5] and in assay [6] was more than 100 µM in each case. Further, the TGI in [7], in assay [8], in assay [9], in assay [10], in assay [11] and in assay [12] was more than 100 µM throughout. The TGI in assay [13], in assay [14], in assay [15], in assay [16], in assay [17] and in assay [18] was more than 100 µM in each case. The TGI in assay [19] and in assay [20] was more than 100 µM in each case.
In the case of `Cn1c2ccccc2c(=NNc2cccc(C(=O)O)c2)c2ccccc21`, the TGI in assay [1] was 35.5 µM; in [2], 47.8 µM; in assay [3], 51.4 µM; in assay [4] it was 33.5 µM; in [5] it was 51.2 µM; in [6], 14.7 µM. In addition, the TGI in [7] amounted to 66.2 µM; in [8] it was 17.9 µM; in assay [9], 39.1 µM; in [10], 32 µM; in [11], 21 µM; in assay [12] it was 11.9 µM. Moreover, the TGI in [13] was determined as 23.6 µM; in [14], 46.9 µM; in [15], 35.4 µM; in [16] it was 28.9 µM; in assay [17], 49.6 µM; in [18] it was 30.3 µM. Further, the TGI in assay [19] was found to be 35.5 µM; in [20], 58.6 µM.
For `COc1ccc(C2OC(c3ccncc3)=NN2C)cc1OC` (stereo not given), the TGI in assay [1], in assay [2], in assay [3], in assay [4], in assay [5] and in assay [6] was more than 100 µM throughout. The TGI in assay [7], in [8], in assay [9], in [10], in assay [11] and in assay [12] was more than 100 µM in each case. Further, the TGI in [13], in [14], in assay [15], in assay [16], in [17] and in assay [18] was more than 100 µM throughout. The TGI in [19] and in [20] was more than 100 µM in each case.
For `CC(C)(C)OC(=O)NCCCNC1(c2cc3ccccc3s2)CCCCC1`, the TGI in assay [1] was found to be 33.6 µM; in assay [2], 32.2 µM; in assay [3], 29.5 µM; in assay [4] it was 28 µM; in assay [5], 22.6 µM; in [6], 13.4 µM. For the same compound, the TGI in assay [7] worked out at 32.2 µM; in assay [8], 35.2 µM; in assay [9], 25 µM; in assay [10], 26.4 µM; in assay [11], 32 µM; in assay [12], 27.5 µM. For the same compound, the TGI is 47.6 µM in [13]; 34.2 µM in assay [14]; 37.6 µM in [15]; 27.3 µM in assay [16]; 26.2 µM in assay [17]; 30.5 µM in assay [18]. For the same compound, the TGI came out at 40.9 µM in assay [19] and 30.8 µM in assay [20].
On to `Nc1nc(Cl)cc(NCC2(CO)CCCC2)n1`, for which the TGI in [1], in assay [2], in [3], in [4], in assay [5] and in [6] was more than 100 µM throughout. For the same compound, the TGI in assay [7], in assay [8], in assay [9], in [10], in assay [11] and in assay [12] was more than 100 µM each time. Moreover, the TGI in [13], in [14], in [15], in assay [16], in assay [17] and in assay [18] was more than 100 µM throughout. The TGI in assay [19] and in [20] was more than 100 µM each time.
In the case of `C[N+]12CCCCC1C(CN1C(=O)Cc3c4ccccc4c(c4ccccc34)CC1=O)CCC2` (stereo not given), the TGI in assay [1], in [2], in assay [3], in [4], in assay [5] and in assay [6] was more than 100 µM throughout. The TGI in assay [7], in [8], in assay [9], in [10], in [11] and in assay [12] was more than 100 µM in each case. Moreover, the TGI in assay [13], in assay [14], in [15], in assay [16], in assay [17] and in assay [18] was more than 100 µM throughout. Further, the TGI in [19] and in assay [20] was more than 100 µM throughout.
With `C#C[C@]1(O)CC[C@H]2[C@@H]3CCC4=C/C(=N/OC(=O)c5cccc6c(=O)c7ccccc7[nH]c56)CC[C@@H]4[C@H]3CC[C@@]21C`, the TGI was more than 100 µM in assay [1]; more than 100 µM in assay [2]; more than 100 µM in assay [3]; 39.8 µM in [4]; more than 100 µM in assay [5]; more than 100 µM in assay [6]. For the same compound, the TGI in assay [7] was more than 100 µM; in [8], more than 100 µM; in assay [9], more than 100 µM; in assay [10] it was more than 100 µM; in assay [11] it was 84.1 µM; in assay [12], more than 100 µM. In addition, the TGI was more than 100 µM in [13]; more than 100 µM in assay [14]; more than 100 µM in assay [15]; 45.8 µM in assay [16]; more than 100 µM in assay [17]; more than 100 µM in assay [18]. The TGI in assay [19] and in [20] was more than 100 µM in each case.
Regarding `CC12CCC(O)CC1CCC1C2CCC2(C)C(C(=O)CC(O)C(F)(F)F)CCC12` (stereo not given), the TGI was more than 100 µM in [1]; more than 100 µM in [2]; more than 100 µM in assay [3]; 47.5 µM in [4]; more than 85.2 µM in assay [5]; 19.6 µM in assay [6]. Also, the TGI in assay [7] is more than 100 µM; in assay [8], more than 100 µM; in [9], more than 100 µM; in assay [10], more than 100 µM; in assay [11], more than 100 µM; in assay [12] it was more than 90.9 µM. Besides, the TGI was more than 100 µM in [13]; more than 92.9 µM in [14]; more than 100 µM in assay [15]; more than 100 µM in assay [16]; 79.5 µM in [17]; more than 100 µM in assay [18]. In addition, the TGI in [19] is more than 100 µM; in assay [20], more than 91.6 µM.
